In patent publication US20060217305A1, “Induction of tumor cell senescence by retinoid receptor agonists and antagonists” (Ordway Research Institute, Inc., priority 2005, published 2006):

What was measured:
Format in all cases: cell-based, human
[1] = system: DR5 RARE-containing promoter in MCF-7 cells; assay: DR5-luciferase transient transfection assay (RARE-dependent transcription); conditions: 100 nM, 24 hrs
Procedure: The assays were carried out in triplicate. RA is all-trans retinoic acid. LGD1550 is a pan-RAR agonist. LG100815 is a pan-RAR antagonist.
To confirm the ability of LG100815 to antagonize RARE-dependent induction of transcription analysis of firefly luciferase expression from a RARE-containing artificial promoter DR5 (Stratagene, catalog number 240119) was performed. Cells were plated to the density of 3×10^5 in P60 24 hrs before transient transfection. DR5 reporter plasmid (4 μg) was mixed with the SV40-driven-Renilla luciferase control plasmid (0.04 μg) and transfected using Lipofectamine Plus (Life Technologies/Invitrogen, Carlsbad, Calif.) as described by the manufacturer. 3 hrs after transfection, cells were rinsed three times with PBS, trypsinized and replated in a 12-well plate to the density of 5×10^4 cells per well. Retinoid agonists and antagonists were added 48 hrs later, and the luciferase assay was performed after another 24 hrs.

MCF-7 cells [2] = assay: MCF-7 cell growth, cell number after 7 days; conditions: 100 nM RA, LGD1550, LGD1268, 10 μM LG100815, LG101208
Procedure: The bars represent cell number after 7 days of culture with the addition of DMSO (control), 100 nM RA, 100 nM RAR agonist LGD1550, 100 nM RXR agonist LGD1268, 10 μM RAR antagonist LG100815, and 10 μM RXR antagonist LG101208. Experiments were done in triplicate, and the results are expressed relative to the average of the control.
(§1) To test this, we have analyzed the effects of different compounds on the growth of MCF-7 cells, as measured by the cell number after 7 days exposure to the compounds (FIG. 2) and on the fraction of cells expressing the senescence-associated β-galactosidase activity (SA-β-gal), a marker of senescence, after 7-day treatment with the compounds (FIG. 3).

MCF-7 cells [3] = assay: senescence-associated β-galactosidase (SA-β-gal) positive cells; conditions: 7-day treatment (FIG. 3 legend: 8 days); concentrations as in FIG. 2
Text: The bars represent percentages of SA-β-gal+ cells after 8 days of treatment with the indicated compounds (in triplicate). The compounds were used at the same concentrations as in FIG. 2.
as §1

CC(/C=C/C=C(\C)c1cc(C(C)(C)C)cc(C(C)(C)C)c1)=C\C(=O)O [LGD1550]
induction of luciferase expression from DR5 RARE-containing promoter [1]: approximately 50 fold | effect on MCF-7 cell growth (cell number) (MCF-7 cells [2]): inhibited the cell growth | induction of senescent phenotype (SA-β-gal+ cells) (MCF-7 cells [3]): induced SA-β-gal to an extent similar to that of RA
